Experimental data from PubChem BioAssay AID1259407 (Chemical Carcinogenesis Research Information System (CCRIS), 2018).
The source made the active and inactive calls. No rule for the calls is given here.

Test system: CCRIS mutagenicity, Ames/micronucleus/aberration tests
Experiment: CCRIS mutagenicity studies
[1] = Test System: AMES SALMONELLA TYPHIMURIUM, Strain/Indicator: TA98, Metabolic Activation: HAMSTER, LIVER, S-9, AROCLOR 1254 (10%), Method: PREINCUBATION
[2] = Test System: AMES SALMONELLA TYPHIMURIUM, Strain/Indicator: TA98, Metabolic Activation: NONE, Method: PREINCUBATION
[3] = Test System: AMES SALMONELLA TYPHIMURIUM, Strain/Indicator: TA98, Metabolic Activation: RAT, LIVER, S-9, AROCLOR 1254 (10%), Method: PREINCUBATION
[4] = Test System: AMES SALMONELLA TYPHIMURIUM, Strain/Indicator: TA100, Metabolic Activation: HAMSTER, LIVER, S-9, AROCLOR 1254 (10%), Method: PREINCUBATION
[5] = Test System: AMES SALMONELLA TYPHIMURIUM, Strain/Indicator: TA100, Metabolic Activation: NONE, Method: PREINCUBATION
[6] = Test System: AMES SALMONELLA TYPHIMURIUM, Strain/Indicator: TA100, Metabolic Activation: RAT, LIVER, S-9, AROCLOR 1254 (10%), Method: PREINCUBATION
[7] = Test System: AMES SALMONELLA TYPHIMURIUM, Strain/Indicator: TA1535, Metabolic Activation: HAMSTER, LIVER, S-9, AROCLOR 1254 (10%), Method: PREINCUBATION
[8] = Test System: AMES SALMONELLA TYPHIMURIUM, Strain/Indicator: TA1535, Metabolic Activation: NONE, Method: PREINCUBATION
[9] = Test System: AMES SALMONELLA TYPHIMURIUM, Strain/Indicator: TA1535, Metabolic Activation: RAT, LIVER, S-9, AROCLOR 1254 (10%), Method: PREINCUBATION
[10] = Test System: AMES SALMONELLA TYPHIMURIUM, Strain/Indicator: TA1537, Metabolic Activation: HAMSTER, LIVER, S-9, AROCLOR 1254 (10%), Method: PREINCUBATION
[11] = Test System: AMES SALMONELLA TYPHIMURIUM, Strain/Indicator: TA1537, Metabolic Activation: NONE, Method: PREINCUBATION
[12] = Test System: AMES SALMONELLA TYPHIMURIUM, Strain/Indicator: TA1537, Metabolic Activation: RAT, LIVER, S-9, AROCLOR 1254 (10%), Method: PREINCUBATION
[13] = Test System: AMES SALMONELLA TYPHIMURIUM, Strain/Indicator: TA100, Metabolic Activation: NONE, Method: STANDARD PLATE
[14] = Test System: AMES SALMONELLA TYPHIMURIUM, Strain/Indicator: TA100, Metabolic Activation: S-9, Method: STANDARD PLATE
[15] = Test System: AMES SALMONELLA TYPHIMURIUM, Strain/Indicator: TA1535, Metabolic Activation: NONE, Method: STANDARD PLATE
[16] = Test System: AMES SALMONELLA TYPHIMURIUM, Strain/Indicator: TA1535, Metabolic Activation: S-9, Method: STANDARD PLATE
[17] = Test System: AMES SALMONELLA TYPHIMURIUM, Strain/Indicator: TA98, Metabolic Activation: NONE, Method: STANDARD PLATE

**Q.** With `CCCNC(=O)NS(=O)(=O)c1ccc(Cl)cc1` as the compound, how does the mutagenic call (End Point: IN VITRO CHROMOSOMAL ABERRATIONS, Test System: CHO CELLS, Metabolic Activation: NONE) read?
**A.** inactive; negative

**Q.** And the mutagenic call (End Point: IN VITRO CHROMOSOMAL ABERRATIONS, Test System: CHO CELLS, Metabolic Activation: RAT, LIVER, S-9, AROCLOR 1254)?
**A.** inactive; negative

**Q.** And the mutagenic call [1]?
**A.** inactive; negative

**Q.** And the mutagenic call [2]?
**A.** inactive; negative

**Q.** What about the mutagenic call [3] of the same compound?
**A.** inactive; negative

**Q.** And the mutagenic call [4]?
**A.** inactive; negative

**Q.** And the mutagenic call [5]?
**A.** inactive; negative

**Q.** What about the mutagenic call [6] of the same compound?
**A.** inactive; negative

**Q.** And the mutagenic call [7]?
**A.** inactive; negative

**Q.** What about the mutagenic call [8] of the same compound?
**A.** inactive; negative

**Q.** And the mutagenic call [9]?
**A.** inactive; negative

**Q.** And the mutagenic call [10]?
**A.** inactive; negative

**Q.** And the mutagenic call [11]?
**A.** inactive; negative

**Q.** And the mutagenic call [12]?
**A.** inactive; negative

**Q.** What about the mutagenic call (Test System: MOUSE LYMPHOMA, Strain/Indicator: L5178Y (TK+/TK-), Metabolic Activation: NONE, Method: SUSPENSION/PLATE) of the same compound?
**A.** inactive; negative

**Q.** And the mutagenic call (Test System: MOUSE LYMPHOMA, Strain/Indicator: L5178Y (TK+/TK-), Metabolic Activation: RAT, LIVER, S-9, AROCLOR 1254, Method: SUSPENSION/PLATE)?
**A.** inactive; negative

**Q.** `CC(C)CCOC(=O)CC(C)C` was tested. Which mutagenic call (Test System: AMES SALMONELLA TYPHIMURIUM, Strain/Indicator: TA97, Metabolic Activation: NONE, Method: PREINCUBATION) did it give?
**A.** inactive; negative

**Q.** What about the mutagenic call (Test System: AMES SALMONELLA TYPHIMURIUM, Strain/Indicator: TA97, Metabolic Activation: RAT, LIVER, S-9, AROCLOR 1254, Method: PREINCUBATION) of the same compound?
**A.** inactive; negative

**Q.** What about the mutagenic call (Test System: AMES SALMONELLA TYPHIMURIUM, Strain/Indicator: TA102, Metabolic Activation: NONE, Method: PREINCUBATION) of the same compound?
**A.** inactive; negative

**Q.** And the mutagenic call (Test System: AMES SALMONELLA TYPHIMURIUM, Strain/Indicator: TA102, Metabolic Activation: RAT, LIVER, S-9, AROCLOR 1254, Method: PREINCUBATION)?
**A.** inactive; negative

**Q.** How did the mutagenic call [1] turn out when `CCOC(=O)c1ccccc1C(=O)OCC` was run?
**A.** inactive; negative

**Q.** And the mutagenic call [2]?
**A.** inactive; negative

**Q.** And the mutagenic call [3]?
**A.** inactive; negative

**Q.** What about the mutagenic call [4] of the same compound?
**A.** inactive; negative

**Q.** And the mutagenic call [5]?
**A.** inactive; negative

**Q.** And the mutagenic call [13]?
**A.** active; positive

**Q.** What about the mutagenic call [6] of the same compound?
**A.** inactive; negative

**Q.** What about the mutagenic call [14] of the same compound?
**A.** inactive; negative

**Q.** What about the mutagenic call [7] of the same compound?
**A.** inactive; negative

**Q.** What about the mutagenic call [8] of the same compound?
**A.** inactive; negative

**Q.** And the mutagenic call [15]?
**A.** active; positive

**Q.** And the mutagenic call [9]?
**A.** inactive; negative

**Q.** And the mutagenic call [16]?
**A.** inactive; negative

**Q.** What about the mutagenic call [10] of the same compound?
**A.** inactive; negative

**Q.** And the mutagenic call [11]?
**A.** inactive; negative

**Q.** What about the mutagenic call [12] of the same compound?
**A.** inactive; negative

**Q.** `CC1(C)C=C(C(=O)O)C(C)(C)N1[O]` was tested. Which mutagenic call [17] did it give?
**A.** inactive; negative

**Q.** And the mutagenic call [13]?
**A.** inactive; negative

**Q.** What about the mutagenic call (Test System: AMES SALMONELLA TYPHIMURIUM, Strain/Indicator: TA102, Metabolic Activation: NONE, Method: STANDARD) of the same compound?
**A.** inactive; negative

**Q.** And the mutagenic call (Test System: AMES SALMONELLA TYPHIMURIUM, Strain/Indicator: TA102, Metabolic Activation: NONE, Method: STANDARD PLATE)?
**A.** inactive; negative

**Q.** What about the mutagenic call (Test System: AMES SALMONELLA TYPHIMURIUM, Strain/Indicator: TA102, Metabolic Activation: XANTHINE OXIDASE, Method: STANDARD PLATE) of the same compound?
**A.** inactive; negative

**Q.** What about the mutagenic call (Test System: AMES SALMONELLA TYPHIMURIUM, Strain/Indicator: TA104, Metabolic Activation: NONE, Method: STANDARD PLATE) of the same compound?
**A.** inactive; negative

**Q.** And the mutagenic call (Test System: AMES SALMONELLA TYPHIMURIUM, Strain/Indicator: TA104, Metabolic Activation: XANTHINE OXIDASE, Method: STANDARD PLATE)?
**A.** inactive; negative

**Q.** How did the mutagenic call [17] turn out when `Cc1snc2ccccc12` was run?
**A.** inactive; negative

**Q.** And the mutagenic call (Test System: AMES SALMONELLA TYPHIMURIUM, Strain/Indicator: TA98, Metabolic Activation: S-9, Method: STANDARD PLATE)?
**A.** inactive; negative

**Q.** What about the mutagenic call [13] of the same compound?
**A.** inactive; negative

**Q.** And the mutagenic call [14]?
**A.** active; positive

**Q.** And the mutagenic call [15]?
**A.** inactive; negative

**Q.** And the mutagenic call [16]?
**A.** inactive; negative

**Q.** And the mutagenic call (Test System: AMES SALMONELLA TYPHIMURIUM, Strain/Indicator: TA1537, Metabolic Activation: NONE, Method: STANDARD PLATE)?
**A.** inactive; negative

**Q.** And the mutagenic call (Test System: AMES SALMONELLA TYPHIMURIUM, Strain/Indicator: TA1537, Metabolic Activation: S-9, Method: STANDARD PLATE)?
**A.** inactive; negative

**Q.** `O[C@H]1[C@H]2O[C@H]2c2ccc3c(ccc4ccccc43)c2[C@@H]1O` was tested. Which mutagenic call [2] did it give?
**A.** active; positive

**Q.** And the mutagenic call (Test System: CHINESE HAMSTER V-79, Strain/Indicator: V-79/6-THIOGUANINE, Metabolic Activation: NONE)?
**A.** active; positive

**Q.** For `O=c1cc(-c2ccc(O)cc2)oc2cc(O)c([C@@H]3O[C@H](CO)[C@@H](O)[C@H](O)[C@H]3O)c(O)c12`, which mutagenic call (Test System: Ames Salmonella typhimurium, Strain/Indicator: TA98, Metabolic Activation: None, Method: Standard plate) is on record?
**A.** inactive; negative

**Q.** What about the mutagenic call (Test System: Ames Salmonella typhimurium, Strain/Indicator: TA98, Metabolic Activation: Rat, Liver, S-9, Aroclor 1254, Method: Standard plate) of the same compound?
**A.** inactive; negative

**Q.** `Cc1ccc(Cl)c(N)c1` was tested. Which mutagenic call (Test System: UDS RODENT HEPATOCYTES, Strain/Indicator: THY INCORP (NON-S-PHASE), Metabolic Activation: NONE, Method: AUTORADIOGRAPHY) did it give?
**A.** inactive; negative
